From patent publication US20260165983A1, “VITAMIN A FORMULATION” (ADISSEO FRANCE S.A.S., priority 2020, published 2026)

How the values were obtained:
[1] = Dynamic oxidation test by DSC (differential scanning calorimeter) under oxygen flow; type: physicochemical; details: oxygen flow 50 ml/min; vitamin A acetate with 20% by weight antioxidant; higher temperature = higher antioxidant power
Experimental: (§1) The antioxidant power measurement methods used in the examples for antioxidant and vitamin A (as vitamin A acetate) mixtures are shown below.
1) Dynamic Oxidation Test by DSC (Differential Scanning Calorimeter)
It is carried out under oxygen flow (50 ml/min) then the temperature is raised to a temperature above the melting point of vitamin A (i.e. above 60° C.).
The oxidation corresponds to an exothermic phenomenon which occurs at a given temperature. For BHT, it occurs at 153° C. The higher the oxidation temperature, the higher the antioxidant power.
All the samples having a temperature greater than or equal to 120° C. will be retained for a much longer Oxipres test.

[2] = Oxipres test (oxygen consumption under O2 pressure); type: physicochemical
Source text: as §1
This test consists of putting the samples under O2 pressure at a given temperature. The method allows determining the kinetics of oxygen consumption, expressed by a variation of O2 (ΔP in bars), this variation being all the smaller as the antioxidant power is high.

DSC DYN Onset (oxidation temperature) [1]	Oxipres Time ([2]; under O2 pressure at a given temperature)	Oxipres ΔP (variation of O2) ([2]; under O2 pressure, smaller ΔP = higher antioxidant power)	Structure (SMILES)
153 °C	–	–	Cc1cc(C(C)(C)C)c(O)c(C(C)(C)C)c1 [BHT, 2,6-di-tert-butyl-4-methyl-phenol, reference compound]
60 °C	0 h	5.0 Bars	CC(=O)OC/C=C(C)/C=C/C=C(C)/C=C/C1=C(C)CCCC1(C)C [Sample 1, vitamin A acetate]
